Assay results published in patent US8685949B2, “Use of 25-hydroxy vitamin D3 to improve vitality of animals” (DSM IP Assets B.V., priority 2005, dated 2014).

Key:
[1] = system: replacement gilts (Landrace×Large White) / parity-one sows; assay: Reproductive performance of parity-one sows fed 25-hydroxy-vitamin D3 (Experiment 1); type: in vivo, pig
From the text: (§1) In a commercial pig farm a total of 27 six-month-old replacement gilts (Landrace×Large White) were selected. There were two dietary treatments in different stages of the reproductive cycle (replacement gilt development, gestation, lactation). The control diet was the standard farm diet without the supplementation of 25-hydroxy-vitamin D3. The experimental diet was the standard farm diet supplemented with 25-hydroxy-vitamin D3 at 50 mcg per kg diet.
(§2) Fourteen (14) gilts were randomly selected and assigned to the control group and the other 13 gilts to the ROVIMIX® Hy•D® 1.25% group. Breeding started when the gilts were 7 months old. They were placed in the gestating stalls after breeding and remained there until 14 days before the expected date of farrowing. They were then weighed and moved to the farrowing stalls. Piglets were weaned at 28 days of age.
(§3) The following data were collected in the farrowing stalls in Experiments 1 and 2: • 1. Litter size at birth • a. Total pigs born • b. Pigs born alive • c. Stillborn pigs • d. Mummified fetuses • 2. Pig weight at birth • 3. Litter size at weaning • 4. Mortality • 5. Pig weight at weaning

[2] = system: replacement gilts (Landrace×Large White) / parity-one sows; assay: Reproductive performance of parity-one sows fed 25-hydroxy-vitamin D3 (Experiment 2); type: in vivo, pig
From the text: as §1, with “In another” for “In a”, “of 43” for “of 27”
as §2, with “Twenty-two (22)” for “Fourteen (14)”, “21” for “13”
as §3

[3] = 50 mcg per kg diet, 28-day weaning

C=C1CC[C@H](O)C/C1=C/C=C1\CCC[C@]2(C)[C@@H]([C@H](C)CCCC(C)(C)O)CC[C@@H]12 [25-hydroxy-vitamin D3]
BWT = Body weight of pigs at birth ([1]; 50 mcg per kg diet): 1.45 kg | LSBA = Litter size of number of pigs born alive ([1]; 50 mcg per kg diet): 9.77 | LSW = Litter size of number of pigs weaned at 28-day weaning [1, 3]: 9.46 | Piglet weight gain at 28-day weaning ([1]; birth to 28-day weaning, control 5.33 kg): 5.5 kg | Weaning weights compared with control ([1]; result in words): not different from each other | LSBT = Litter size of total number of pigs at birth ([1]; standard farm diet supplemented with 25-hydroxy-vitamin D3 at 50 mcg per kg diet, gilt development, gestation, lactation): 10.46 | Difference in litter size at weaning vs. control ([1]; treated minus control): +1.82 | Difference in pigs born alive vs. control ([1]; treated minus control): +1.84 | Difference in total pigs born vs. control ([1]; treated minus control): +1.46 | LSBA = Litter size of number of pigs born alive ([2]; 50 mcg per kg diet): 9.62 | LSW = Litter size of number of pigs weaned at 28-day weaning [2, 3]: 8.48 | Difference in litter size at weaning vs. control ([2]; treated minus control): +0.66 | Difference in pigs born alive vs. control ([2]; treated minus control): +0.44
